Data on 12 compounds can be found in ChEMBL document CHEMBL1201862, “PubChem BioAssay data set” (2004).

Molecules are shown by their SMILES.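 Method: 48-hour compound exposure of cells in 96-well plates, five concentrations, linear interpolation of endpoints. Abbreviation: GI50, concentration required for 50% inhibition of growth.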 Calls of active or inactive are those of the source. No stated cut-off is given here; in the data, active = GI50 up to about 1.1 µM and inactive = higher.

Test systems include Malme-3M; OVCAR-8; ACHN; SR; SF-268; SNB-75; MOLT-4; NCI-H23; HL-60; SK-MEL-2; KM12; SN12C; UACC-62; SK-MEL-5; UACC-257; OVCAR-5; HOP-62; RPMI-8226; HCC 2998.
Common to all, as to experiment: NCI anticancer screen, dose series, 48 h

As to `C(=N\OCc1ccccc1)/c1ncccc1C1OCCO1`, the GI50 with Malme-3M, with OVCAR-8, in the assay on ACHN, in the assay with SR, with SF-268 and with SNB-75 was > 100 µM (inactive) in each case. In addition, the GI50 in the assay with MOLT-4, in the assay with NCI-H23, in the assay with HL-60, in the assay with SK-MEL-2, in the assay with KM12 and with SN12C was > 100 µM (inactive) each time. Also, the GI50 in the assay on UACC-62, in the assay on SK-MEL-5, in the assay with UACC-257, in the assay on OVCAR-5 and in the assay with HOP-62 was > 100 µM (inactive) in each case.

For the compound `CCOc1cccc2nc3cccc(C(=O)NCCN(C)C)c3nc12`, the GI50 was 0.995 µM (active) in the assay on Malme-3M; 0.891 µM (active) in the assay on OVCAR-8; 0.372 µM (active) in the assay on ACHN; 0.305 µM (active) in the assay with SR; 1.45 µM (inactive) in the assay on SNB-75; 0.333 µM (active) with MOLT-4. Also, the GI50 was 1.39 µM (inactive) with NCI-H23; 0.948 µM (active) with RPMI-8226; 1.6 µM (inactive) in the assay with SK-MEL-2; 0.867 µM (active) with KM12; 0.719 µM (active) in the assay on SN12C; 1.47 µM (inactive) with UACC-62. In addition, the GI50 was 1.78 µM (inactive) in the assay on SK-MEL-5; 1.95 µM (inactive) in the assay on UACC-257; 2.02 µM (inactive) in the assay with OVCAR-5; 0.469 µM (active) in the assay on HOP-62; 0.946 µM (active) in the assay with HCC 2998.

`Cc1cccc2c1Oc1cc(Cl)ccc1C2NC(=O)CN(C)C` (stereo unspecified): the GI50 with OVCAR-8 is > 100 µM (inactive); in the assay with ACHN, 22.8 µM (inactive); in the assay with SR it was 31.4 µM (inactive); in the assay on SF-268 it was 74.3 µM (inactive); in the assay on SNB-75 it was 21.1 µM (inactive); in the assay on MOLT-4, 29.2 µM (inactive). For the same compound, the GI50 in the assay with NCI-H23 was 92 µM (inactive); in the assay with HL-60, 17.1 µM (inactive); with RPMI-8226, 29.2 µM (inactive); in the assay with SN12C, 63.1 µM (inactive); in the assay on UACC-62 it was 24.3 µM (inactive); in the assay with SK-MEL-5, 21.6 µM (inactive). Also, the GI50 in the assay on UACC-257 was 31.6 µM (inactive); with OVCAR-5, > 100 µM (inactive); in the assay on HOP-62 it was 57.7 µM (inactive); in the assay with HCC 2998 it was 34.8 µM (inactive).

For `COc1ccc(NC(=O)C2C(=O)N(c3ccc(OC)cc3)C(=O)/C2=N\N)cc1` (stereo unspecified), the GI50 with Malme-3M, in the assay on OVCAR-8, in the assay with ACHN, in the assay on SR, in the assay with SF-268 and with MOLT-4 was > 100 µM (inactive) throughout. The GI50 in the assay with NCI-H23, in the assay on HL-60, in the assay on SK-MEL-2, in the assay with KM12, in the assay with SN12C and in the assay with UACC-62 was > 100 µM (inactive) each time. Also, the GI50 in the assay with SK-MEL-5, with UACC-257, in the assay on OVCAR-5, in the assay with HOP-62 and in the assay with HCC 2998 was > 100 µM (inactive) in each case.

As to `Cc1nc(=O)n2c(c1C(=O)Nc1ccc(Cl)cc1)NCCC2`, the GI50 with Malme-3M, in the assay on OVCAR-8, in the assay on ACHN, in the assay on SR, with SF-268 and in the assay with MOLT-4 was > 100 µM (inactive) each time. In addition, the GI50 with NCI-H23, with HL-60, with RPMI-8226, in the assay on SK-MEL-2, with KM12 and with SN12C was > 100 µM (inactive) throughout. Further, the GI50 with UACC-62, in the assay with OVCAR-5 and with HOP-62 was > 100 µM (inactive) each time.

For the compound `c1ccc2c(c1)N=C(c1ccc3ccccc3c1)CC(c1cccc3ccccc13)S2` (stereo unspecified), the GI50 in the assay with Malme-3M was > 100 µM (inactive); in the assay on OVCAR-8, 37.9 µM (inactive); with ACHN it was 38.5 µM (inactive); with SF-268 it was 48.3 µM (inactive); in the assay on SNB-75 it was 56.5 µM (inactive); in the assay on MOLT-4, 11.4 µM (inactive). Besides, the GI50 is 25.7 µM (inactive) in the assay with NCI-H23; 15.1 µM (inactive) in the assay on HL-60; 11.2 µM (inactive) in the assay with RPMI-8226; > 100 µM (inactive) with SK-MEL-2; 18.9 µM (inactive) in the assay on KM12; 59.3 µM (inactive) in the assay on SN12C. In addition, the GI50 in the assay with UACC-62 was 21 µM (inactive); in the assay with SK-MEL-5 it was 38.5 µM (inactive); in the assay on UACC-257, 56.6 µM (inactive); in the assay with OVCAR-5 it was > 100 µM (inactive); in the assay with HOP-62, 85.5 µM (inactive); in the assay with HCC 2998, 15.1 µM (inactive).

With `CC(C)CCC[C@@H](C)[C@H]1CC[C@H]2[C@@H]3CC=C4CC(OCCCCN(O)CCCSC5OC(CO)C(O)C(O)C5O)CC[C@]4(C)[C@H]3CC[C@]12C` (stereo partly specified), the GI50 was 74.1 µM (inactive) with OVCAR-8; > 100 µM (inactive) with ACHN; 34.7 µM (inactive) with SR; 52.7 µM (inactive) in the assay with SF-268; 65.8 µM (inactive) in the assay on SNB-75; 34 µM (inactive) in the assay with MOLT-4. In addition, the GI50 is 45.2 µM (inactive) in the assay on NCI-H23; 25.8 µM (inactive) in the assay with HL-60; > 100 µM (inactive) with RPMI-8226; 17.4 µM (inactive) with SK-MEL-2; 33.5 µM (inactive) with KM12; > 100 µM (inactive) in the assay on SN12C. For the same compound, the GI50 in the assay on UACC-62 was > 100 µM (inactive); in the assay with SK-MEL-5 it was 70.5 µM (inactive); in the assay on UACC-257, > 100 µM (inactive); in the assay with OVCAR-5, > 100 µM (inactive); with HOP-62, 94.2 µM (inactive).

Take `C/C=C(\C)c1cc(O)c(C)c2c1Oc1cc(O)c(Cl)c(C)c1C(=O)O2`: the GI50 in the assay on OVCAR-8 was 21.4 µM (inactive); in the assay with ACHN, 22.2 µM (inactive); in the assay with SR, 23.8 µM (inactive); with SF-268 it was 30.5 µM (inactive); in the assay on SNB-75, 19.6 µM (inactive); in the assay with NCI-H23, 18.9 µM (inactive). The GI50 with HL-60 was 36 µM (inactive); in the assay on SK-MEL-2 it was 21.5 µM (inactive); with KM12 it was 20.9 µM (inactive); in the assay on SN12C, 16.6 µM (inactive); with SK-MEL-5, 13.9 µM (inactive); with UACC-257, 21.5 µM (inactive). Moreover, the GI50 is 16.6 µM (inactive) in the assay on OVCAR-5, 27.7 µM (inactive) with HOP-62 and 13 µM (inactive) in the assay with HCC 2998.

With `CCOC(=O)c1c(N2CCCC2)ncn(-c2ccccc2)c1=S`, the GI50 with Malme-3M is 57.5 µM (inactive); with OVCAR-8, > 100 µM (inactive); in the assay with ACHN, > 100 µM (inactive); with SR, > 100 µM (inactive); with SF-268 it was 28.4 µM (inactive); in the assay with SNB-75, > 100 µM (inactive). The GI50 in the assay with MOLT-4, in the assay with HL-60, with RPMI-8226, in the assay on SK-MEL-2, in the assay with KM12 and in the assay on SN12C was > 100 µM (inactive) each time. Also, the GI50 in the assay with UACC-62, in the assay with SK-MEL-5, in the assay with UACC-257, in the assay with OVCAR-5, with HOP-62 and in the assay with HCC 2998 was > 100 µM (inactive) in each case.

Regarding `CC(C)N(C(=O)C12C3C4C5(C#N)C3C1(C#N)C5C42C#N)C(C)C` (stereo unspecified), the GI50 in the assay on Malme-3M, in the assay on OVCAR-8, in the assay with ACHN, in the assay on SF-268, in the assay on SNB-75 and with MOLT-4 was > 100 µM (inactive) in each case. The GI50 in the assay on NCI-H23, in the assay on HL-60, with RPMI-8226, in the assay on SK-MEL-2, in the assay on KM12 and with SN12C was > 100 µM (inactive) throughout. Further, the GI50 in the assay with UACC-62, in the assay with SK-MEL-5, in the assay on UACC-257, in the assay with OVCAR-5, in the assay on HOP-62 and with HCC 2998 was > 100 µM (inactive) throughout.

`O=C(CSc1nc(-c2ccccc2)c(-c2ccccc2)[nH]1)N/N=C/c1ccc([N+](=O)[O-])cc1`: the GI50 is 18.4 µM (inactive) in the assay with Malme-3M; 10.3 µM (inactive) in the assay on OVCAR-8; 26.7 µM (inactive) in the assay with ACHN; 30.9 µM (inactive) with SR; 16.2 µM (inactive) in the assay with SF-268; 21.8 µM (inactive) with SNB-75. Also, the GI50 with MOLT-4 was 18.6 µM (inactive); with NCI-H23, 14.7 µM (inactive); in the assay on HL-60, 34.8 µM (inactive); in the assay on RPMI-8226, 16.6 µM (inactive); in the assay with SK-MEL-2, 13.8 µM (inactive); with KM12, 17.3 µM (inactive). Further, the GI50 with SN12C was 16.2 µM (inactive); in the assay with SK-MEL-5, 17.3 µM (inactive); in the assay with UACC-257 it was 19 µM (inactive); in the assay with HOP-62 it was 17.7 µM (inactive).

On to `CC1(C(=O)O)CCOc2ccccc21` (stereo unspecified), for which the GI50 in the assay with Malme-3M, in the assay on OVCAR-8, in the assay with ACHN, in the assay on SR, in the assay with SF-268 and with SNB-75 was > 100 µM (inactive) each time. The GI50 in the assay with MOLT-4, with NCI-H23, in the assay with HL-60, with RPMI-8226, with SN12C and in the assay with UACC-62 was > 100 µM (inactive) throughout. The GI50 with SK-MEL-5, in the assay on UACC-257, in the assay on OVCAR-5, with HOP-62 and in the assay on HCC 2998 was > 100 µM (inactive) throughout.
